# Measured values reported in PubChem BioAssay (NCI).
#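 Results reflect a 48-hour exposure of cells in 96-well plates to compound at five concentrations. GI50 marks 50% less growth. TGI: concentration producing complete growth inhibition.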
# Columns and labels:
# Experiment in all cases: DTP human tumour cell line panel, 48 h
# NCI-H226 lung = tested on: NCI-H226 lung
# SF-295 CNS = tested on: SF-295 CNS
# K-562 leukemia = tested on: K-562 leukemia
# CCRF-CEM leukemia = tested on: CCRF-CEM leukemia
# SW-620 colon = tested on: SW-620 colon
# M14 melanoma = tested on: M14 melanoma
# OVCAR-3 ovarian = tested on: OVCAR-3 ovarian
# OVCAR-5 ovarian = tested on: OVCAR-5 ovarian
# MDA-MB-231 breast = tested on: MDA-MB-231 breast
# SNB-19 CNS = tested on: SNB-19 CNS
# PC-3 prostate = tested on: PC-3 prostate
# NCI-H522 lung = tested on: NCI-H522 lung
# HL-60(TB) leukemia = tested on: HL-60(TB) leukemia
# HT29 colon = tested on: HT29 colon
# ACHN renal = tested on: ACHN renal
# SK-OV-3 ovarian = tested on: SK-OV-3 ovarian
# RPMI-8226 leukemia = tested on: RPMI-8226 leukemia
# RXF 393 renal = tested on: RXF 393 renal
# HOP-92 NSCLC = tested on: HOP-92 NSCLC
# MDA-MB-435 = tested on: MDA-MB-435
# NCI/ADR-RES ovarian = tested on: NCI/ADR-RES ovarian
# EKVX NSCLC = tested on: EKVX NSCLC
# T-47D breast = tested on: T-47D breast
# UACC-62 melanoma = tested on: UACC-62 melanoma
# CAKI-1 renal = tested on: CAKI-1 renal
# DU-145 prostate = tested on: DU-145 prostate
# NCI-H460 lung = tested on: NCI-H460 lung
# TK-10 renal = tested on: TK-10 renal
# UO-31 renal = tested on: UO-31 renal
# HCT-15 colon = tested on: HCT-15 colon
# LOX IMVI melanoma = tested on: LOX IMVI melanoma
# BT-549 breast = tested on: BT-549 breast
# NCI-H23 lung = tested on: NCI-H23 lung
# HOP-62 NSCLC = tested on: HOP-62 NSCLC
# A498 renal = tested on: A498 renal
# UACC-257 melanoma = tested on: UACC-257 melanoma
# SK-MEL-5 melanoma = tested on: SK-MEL-5 melanoma
# MOLT-4 leukemia = tested on: MOLT-4 leukemia
# HCC-2998 colon = tested on: HCC-2998 colon
# 786-0 renal = tested on: 786-0 renal
# MALME-3M melanoma = tested on: MALME-3M melanoma
# SN12C renal = tested on: SN12C renal
# KM12 colon = tested on: KM12 colon
# COLO 205 colon = tested on: COLO 205 colon
# SF-539 CNS = tested on: SF-539 CNS
# MCF7 breast = tested on: MCF7 breast
# A549 NSCLC = tested on: A549 NSCLC
# HCT-116 colon = tested on: HCT-116 colon
# SNB-75 CNS = tested on: SNB-75 CNS
# SF-268 CNS = tested on: SF-268 CNS
# HS 578T breast = tested on: HS 578T breast
# IGROV1 ovarian = tested on: IGROV1 ovarian
# OVCAR-4 ovarian = tested on: OVCAR-4 ovarian
# OVCAR-8 ovarian = tested on: OVCAR-8 ovarian
# SK-MEL-28 melanoma = tested on: SK-MEL-28 melanoma
structure (smiles),measurement,setting,value
O=C1c2ccn(CCCCN(CCO)CCO)c2C(=O)c2c1c(O)c1ccccc1c2O,GI50,NCI-H226 lung,64 µM
same,TGI,NCI-H226 lung,> 100 µM
same,GI50,SF-295 CNS,10.8 µM
same,TGI,SF-295 CNS,42 µM
same,GI50,K-562 leukemia,4.41 µM
same,TGI,K-562 leukemia,> 100 µM
same,GI50,CCRF-CEM leukemia,2.07 µM
same,TGI,CCRF-CEM leukemia,11.2 µM
same,GI50,SW-620 colon,3.12 µM
same,TGI,SW-620 colon,14.7 µM
same,GI50,M14 melanoma,2.37 µM
same,GI50,OVCAR-3 ovarian,22.2 µM
same,TGI,OVCAR-3 ovarian,> 100 µM
same,GI50,OVCAR-5 ovarian,19.1 µM
same,TGI,OVCAR-5 ovarian,45 µM
same,GI50,MDA-MB-231 breast,1.89 µM
same,TGI,MDA-MB-231 breast,3.97 µM
same,GI50,SNB-19 CNS,20.2 µM
same,TGI,SNB-19 CNS,> 100 µM
same,GI50,PC-3 prostate,3.05 µM
same,TGI,PC-3 prostate,> 20.7 µM
same,GI50,NCI-H522 lung,9.29 µM
same,TGI,NCI-H522 lung,> 92.7 µM
same,GI50,HL-60(TB) leukemia,3.17 µM
same,GI50,HT29 colon,3.39 µM
same,TGI,HT29 colon,> 100 µM
same,GI50,ACHN renal,21.6 µM
same,TGI,ACHN renal,57.7 µM
same,GI50,SK-OV-3 ovarian,7.74 µM
same,TGI,SK-OV-3 ovarian,> 43.3 µM
same,GI50,RPMI-8226 leukemia,5.62 µM
same,TGI,RPMI-8226 leukemia,14.8 µM
same,GI50,RXF 393 renal,5.19 µM
same,TGI,RXF 393 renal,> 58.6 µM
same,GI50,HOP-92 NSCLC,17.7 µM
same,TGI,HOP-92 NSCLC,50.8 µM
same,GI50,MDA-MB-435,3.04 µM
same,GI50,NCI/ADR-RES ovarian,3.31 µM
same,TGI,NCI/ADR-RES ovarian,12.7 µM
same,GI50,EKVX NSCLC,23.3 µM
same,TGI,EKVX NSCLC,> 75.7 µM
same,GI50,T-47D breast,22.9 µM
same,TGI,T-47D breast,> 69.6 µM
same,GI50,UACC-62 melanoma,1.09 µM
same,TGI,UACC-62 melanoma,2.77 µM
same,GI50,CAKI-1 renal,8.24 µM
same,TGI,CAKI-1 renal,21.7 µM
same,GI50,DU-145 prostate,15.2 µM
same,TGI,DU-145 prostate,34.8 µM
same,GI50,NCI-H460 lung,7.1 µM
same,TGI,NCI-H460 lung,26.1 µM
same,GI50,TK-10 renal,6.66 µM
same,TGI,TK-10 renal,29.6 µM
same,GI50,UO-31 renal,12.5 µM
same,TGI,UO-31 renal,> 100 µM
same,GI50,HCT-15 colon,0.948 µM
same,TGI,HCT-15 colon,2.14 µM
same,GI50,LOX IMVI melanoma,1.04 µM
same,TGI,LOX IMVI melanoma,3.64 µM
same,GI50,BT-549 breast,20.7 µM
same,TGI,BT-549 breast,60.9 µM
same,GI50,NCI-H23 lung,1.66 µM
same,TGI,NCI-H23 lung,3.02 µM
same,GI50,HOP-62 NSCLC,16.3 µM
same,TGI,HOP-62 NSCLC,> 50.5 µM
same,GI50,A498 renal,13.4 µM
same,TGI,A498 renal,39.7 µM
same,GI50,UACC-257 melanoma,4.83 µM
same,TGI,UACC-257 melanoma,24.4 µM
same,GI50,SK-MEL-5 melanoma,13.2 µM
same,TGI,SK-MEL-5 melanoma,78.9 µM
same,GI50,MOLT-4 leukemia,2.55 µM
same,GI50,HCC-2998 colon,3.55 µM
same,TGI,HCC-2998 colon,14.2 µM
same,GI50,786-0 renal,5.39 µM
same,TGI,786-0 renal,> 48.4 µM
same,GI50,MALME-3M melanoma,10 µM
same,TGI,MALME-3M melanoma,35.2 µM
same,GI50,SN12C renal,6.85 µM
same,TGI,SN12C renal,25 µM
same,GI50,KM12 colon,1.75 µM
same,TGI,KM12 colon,3.59 µM
same,GI50,COLO 205 colon,4.45 µM
same,TGI,COLO 205 colon,> 100 µM
same,GI50,SF-539 CNS,7.88 µM
same,TGI,SF-539 CNS,> 80.6 µM
same,GI50,MCF7 breast,6.12 µM
same,TGI,MCF7 breast,> 58.1 µM
same,GI50,A549 NSCLC,2.32 µM
same,TGI,A549 NSCLC,7.33 µM
same,GI50,HCT-116 colon,2.04 µM
same,GI50,SNB-75 CNS,21.4 µM
same,TGI,SNB-75 CNS,65.5 µM
same,GI50,SF-268 CNS,13.7 µM
same,TGI,SF-268 CNS,> 63.2 µM
same,GI50,HS 578T breast,17.4 µM
same,TGI,HS 578T breast,59.3 µM
same,GI50,IGROV1 ovarian,4.97 µM
same,TGI,IGROV1 ovarian,> 100 µM
same,GI50,OVCAR-4 ovarian,31.7 µM
same,TGI,OVCAR-4 ovarian,> 100 µM
same,GI50,OVCAR-8 ovarian,3.61 µM
same,TGI,OVCAR-8 ovarian,> 100 µM
same,GI50,SK-MEL-28 melanoma,5.05 µM
same,TGI,SK-MEL-28 melanoma,> 100 µM
